Test results published in US20230257372A1 (CHONG KUN DANG PHARMACEUTICAL CORP., priority 2020, published 2023).
Where two headings read alike, the source gives them in different places.

Key:
human recombinant HDAC1 = target: T1, human recombinant HDAC1 (Homo sapiens, UniProt Q13547); assay: HDAC1 enzyme activity inhibition (HDAC Fluorimetric Drug Discovery Kit); assay type: biochemical; details: read-out: HDAC1
T1 construct: purchased Enzo Life Science, Inc. BML-SE456
Method in brief: (§1)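 Fluorimetric deacetylase read-out. 5-fold compound dilutions; […] enzyme, 10 μM substrate; 30° C, 60 min; developer 30 min.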

[1] = system: hippocampal neurons from a Sprague-Dawley (SD) rat fetus; assay: Effect of HDAC6-specific inhibitor on axonal transport of mitochondria in amyloid-beta treated neurons; assay type: cell-based; details: transport velocity of mitochondria in neuronal axon after normalization; vehicle = 100%, amyloid beta treatment group = 0%; compound treatment for three hours
Method in brief: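 Rat E17-18 hippocampal neurons exposed to amyloid-beta fragments […]; after 24 h (day 8 in vitro) compound added for 3 h, mitochondria stained with MitoTracker Red CMXRos. Confocal imaging every 1 s for 1 min gave per-mitochondrion velocity, normalized vehicle = 100%, amyloid-beta = 0%.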

human recombinant HDAC6 = target: T2, human recombinant HDAC6 (Homo sapiens, UniProt Q9UBN7); assay: HDAC6 enzyme activity inhibition (HDAC Fluorimetric Drug Discovery Kit); assay type: biochemical
T2 construct: purchased Calbiochem Inc. 382180
T2 sequence (Q9UBN7 1-1215): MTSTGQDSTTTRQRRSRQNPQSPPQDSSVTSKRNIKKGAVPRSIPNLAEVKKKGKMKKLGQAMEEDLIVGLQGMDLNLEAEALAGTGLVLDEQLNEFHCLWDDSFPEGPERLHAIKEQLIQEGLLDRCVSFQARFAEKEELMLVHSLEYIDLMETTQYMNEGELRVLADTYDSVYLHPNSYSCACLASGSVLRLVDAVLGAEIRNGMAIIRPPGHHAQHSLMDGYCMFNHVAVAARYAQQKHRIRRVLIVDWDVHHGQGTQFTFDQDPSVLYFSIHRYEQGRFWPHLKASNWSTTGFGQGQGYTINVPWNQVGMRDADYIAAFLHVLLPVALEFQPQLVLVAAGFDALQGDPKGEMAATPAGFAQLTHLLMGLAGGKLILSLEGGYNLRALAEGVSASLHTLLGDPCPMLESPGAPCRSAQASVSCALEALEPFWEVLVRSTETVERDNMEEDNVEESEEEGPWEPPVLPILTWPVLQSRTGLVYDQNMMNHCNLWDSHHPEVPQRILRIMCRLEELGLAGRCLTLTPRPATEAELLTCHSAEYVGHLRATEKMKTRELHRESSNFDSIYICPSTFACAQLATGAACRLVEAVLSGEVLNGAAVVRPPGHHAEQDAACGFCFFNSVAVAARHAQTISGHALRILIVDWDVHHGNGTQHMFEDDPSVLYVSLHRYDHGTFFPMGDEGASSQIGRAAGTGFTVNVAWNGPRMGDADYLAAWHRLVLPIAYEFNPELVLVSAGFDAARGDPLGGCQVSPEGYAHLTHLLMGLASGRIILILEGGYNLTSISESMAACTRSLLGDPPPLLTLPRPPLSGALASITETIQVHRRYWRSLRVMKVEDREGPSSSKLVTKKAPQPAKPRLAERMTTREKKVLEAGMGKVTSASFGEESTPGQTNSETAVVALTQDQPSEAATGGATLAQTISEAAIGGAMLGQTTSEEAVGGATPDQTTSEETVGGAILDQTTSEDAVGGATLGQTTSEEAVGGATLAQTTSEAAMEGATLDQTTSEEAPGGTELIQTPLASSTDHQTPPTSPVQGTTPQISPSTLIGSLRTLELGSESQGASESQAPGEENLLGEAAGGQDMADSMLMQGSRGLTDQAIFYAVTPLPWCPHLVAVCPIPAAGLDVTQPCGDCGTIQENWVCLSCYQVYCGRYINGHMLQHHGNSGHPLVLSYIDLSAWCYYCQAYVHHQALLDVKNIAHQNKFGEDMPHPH
Method in brief: as §1

[2] = human recombinant HDAC1, Fluor de Lys substrate, 30° C. 60 minutes
[3] = human recombinant HDAC6, same protocol as HDAC1
[4] = human recombinant HDAC1, IC50 calculated with GraphPad Prism
[5] = human recombinant HDAC6, IC50 calculated with GraphPad Prism

T1 sequence (Q13547 whole entry): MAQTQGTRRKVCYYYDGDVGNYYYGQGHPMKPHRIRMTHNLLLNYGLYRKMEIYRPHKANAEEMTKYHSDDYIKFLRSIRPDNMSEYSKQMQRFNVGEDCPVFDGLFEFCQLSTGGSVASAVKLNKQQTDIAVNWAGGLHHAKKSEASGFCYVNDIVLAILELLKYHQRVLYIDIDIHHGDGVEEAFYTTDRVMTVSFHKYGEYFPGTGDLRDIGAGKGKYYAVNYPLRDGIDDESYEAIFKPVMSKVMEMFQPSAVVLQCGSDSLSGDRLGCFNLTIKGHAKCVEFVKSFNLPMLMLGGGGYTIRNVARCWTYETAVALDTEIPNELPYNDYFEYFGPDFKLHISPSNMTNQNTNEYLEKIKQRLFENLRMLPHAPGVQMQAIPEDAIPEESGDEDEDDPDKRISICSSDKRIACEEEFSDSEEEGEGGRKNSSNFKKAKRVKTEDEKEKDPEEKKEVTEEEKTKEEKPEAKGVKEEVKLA

Structure (SMILES) | IC50 (human recombinant HDAC1; [2]) | Velocity distribution (%) [1] | HDAC6 selectivity (fold) (human recombinant HDAC6; HDAC6 over HDAC1) | IC50 (human recombinant HDAC6; [3]) | IC50 (human recombinant HDAC1; [4]) | HDAC6 selectivity (fold) (human recombinant HDAC6; HDAC1 IC50 / HDAC6 IC50) | IC50 (human recombinant HDAC6; [5])
CN(C)Cc1ccc(-c2cn(Cc3ncc(-c4nnc(C(F)F)o4)cc3F)nn2)cc1 [Compound 18308, 1-(4-(1-((5-(5-(difluoromethyl)-1,3,4-oxadiazol-2-yl)-3-fluoropyridin-2-yl)methyl)-1H-1,2,3-triazol-4-yl)phenyl)-N,N-dimethylmethanamine] | > 50 µM | *** (***, >100%) | 770 fold | 64.9 nM |  |  | 
FC(F)c1nnc(-c2ccc(Cn3cc(-c4cnc5[nH]ccc5c4)nn3)nc2)o1 [Compound 3841, 2-(6-((4-(1H-pyrrolo[2,3-b]pyridin-5-yl)-1H-1,2,3-triazol-1-yl)methyl)pyridin-3-yl)-5-(difluoromethyl)-1,3,4-oxadiazole] |  | *** (***, >100%) |  |  | > 50 µM | 5952 fold | 8.4 nM
Cc1ccc(-c2cn(Cc3ccc(-c4nnc(C(F)F)o4)cn3)nn2)cc1 [Compound 3738, 2-(difluoromethyl)-5-(6-((4-(p-tolyl)-1H-1,2,3-triazol-1-yl)methyl)pyridin-3-yl)-1,3,4-oxadiazole] |  | *** (***, >100%) |  |  | > 50 µM | 1136 fold | 44 nM
Fc1cc(-c2nnc(C(F)F)o2)cnc1Cn1cc(-c2ccc(CN3CCC3)s2)nn1 [Compound 18309, 2-(6-((4-(5-(azetidin-1-ylmethyl)thiophen-2-yl)-1H-1,2,3-triazol-1-yl)methyl)-5-fluoropyridin-3-yl)-5-(difluoromethyl)-1,3,4-oxadiazole] | > 50 µM | ** (**, 50%˜100%) | 1160 fold | 43.1 nM |  |  | 
FC(F)c1nnc(-c2ccc(Cn3cc(-c4ccc5cc[nH]c5c4)nn3)nc2)o1 [Compound 3838, 2-(6-((4-(1H-indol-6-yl)-1H-1,2,3-triazol-1-yl)methyl)pyridin-3-yl)-5-(difluoromethyl)-1,3,4-oxadiazole] |  | * (*, 0%˜50%) |  |  | > 50 µM | 7142 fold | 7 nM
CN1CCN(c2ccc(-c3cn(Cc4ccc(-c5nnc(C(F)F)o5)cn4)nn3)cc2)CC1 [Compound 4107, 2-(difluoromethyl)-5-(6-((4-(4-(4-methylpiperazin-1-yl)phenyl)-1H-1,2,3-triazol-1-yl)methyl)pyridin-3-yl)-1,3,4-oxadiazole] |  | ** (**, 50%˜100%) |  |  | > 50 µM | 1256 fold | 39.8 nM
CCn1ccc2ccc(-c3cn(Cc4ccc(-c5nnc(C(F)F)o5)cn4)nn3)cc21 [Compound 4136, 2-(difluoromethyl)-5-(6-((4-(1-ethyl-1H-indol-6-yl)-1H-1,2,3-triazol-1-yl)methyl)pyridin-3-yl)-1,3,4-oxadiazole] |  | ** (**, 50%˜100%) |  |  | > 50 µM | 2873 fold | 17.4 nM
Fc1ccccc1-c1cn(Cc2ccc(-c3nnc(C(F)F)o3)cn2)nn1 [Compound 3853, 2-(difluoromethyl)-5-(6-((4-(2-fluorophenyl)-1H-1,2,3-triazol-1-yl)methyl)pyridin-3-yl)-1,3,4-oxadiazole] |  | ** (**, 50%˜100%) |  |  | > 50 µM | 1612 fold | 31 nM
CN1CCN(Cc2c[nH]c3cc(-c4cn(Cc5ccc(-c6nnc(C(F)F)o6)cn5)nn4)ccc23)CC1 [Compound 3986, 2-(difluoromethyl)-5-(6-((4-(3-((4-methylpiperazin-1-yl)methyl)-1H-indol-6-yl)-1H-1,2,3-triazol-1-yl)methyl)pyridin-3-yl)-1,3,4-oxadiazole] |  | *** (***, >100%) |  |  | > 50 µM | 6756 fold | 7.4 nM
FC(F)c1nnc(-c2ccc(Cn3cc(-c4cncc(Cl)c4)nn3)nc2)o1 [Compound 3883, 2-(6-((4-(5-chloropyridin-3-yl)-1H-1,2,3-triazol-1-yl)methyl)pyridin-3-yl)-5-(difluoromethyl)-1,3,4-oxadiazole] |  | * (*, 0%˜50%) |  |  | > 50 µM | 1474 fold | 33.9 nM
Fc1cc(-c2nnc(C(F)F)o2)cnc1Cn1cc(-c2ccccn2)nn1 [Compound 17983, 2-(difluoromethyl)-5-(5-fluoro-6-((4-(pyridin-2-yl)-1H-1,2,3-triazol-1-yl)methyl)pyridin-3-yl)-1,3,4-oxadiazole] | > 50 µM | *** (***, >100%) | 633 fold | 78.9 nM |  |  | 
Fc1cc(-c2cn(Cc3ccc(-c4nnc(C(F)F)o4)cn3)nn2)ccn1 [Compound 4185, 2-(difluoromethyl)-5-(6-((4-(2-fluoropyridin-4-yl)-1H-1,2,3-triazol-1-yl)methyl)pyridin-3-yl)-1,3,4-oxadiazole] |  | *** (***, >100%) |  |  | > 50 µM | 729 fold | 68.5 nM
FC(F)c1nnc(-c2ccc(Cn3cc(-c4cccc(NC5CCCCC5)c4)nn3)nc2)o1 [Compound 3828, N-cyclohexyl-3-(1-((5-(5-(difluoromethyl)-1,3,4-oxadiazol-2-yl)pyridin-2-yl)methyl)-1H-1,2,3-triazol-4-yl)aniline] |  | * (*, 0%˜50%) |  |  | > 50 µM | 1196 fold | 41.8 nM
Cn1ccc2ccc(-c3cn(Cc4ccc(-c5nnc(C(F)F)o5)cn4)nn3)cc21 [Compound 3914, 2-(difluoromethyl)-5-(6-((4-(1-methyl-1H-indol-6-yl)-1H-1,2,3-triazol-1-yl)methyl)pyridin-3-yl)-1,3,4-oxadiazole] |  | * (*, 0%˜50%) |  |  | > 50 µM | 1190 fold | 43.2 nM
FC(F)c1nnc(-c2ccc(Cn3cc(-c4cccc5[nH]ccc45)nn3)nc2)o1 [Compound 3839, 2-(6-((4-(1H-indol-4-yl)-1H-1,2,3-triazol-1-yl)methyl)pyridin-3-yl)-5-(difluoromethyl)-1,3,4-oxadiazole] |  | * (*, 0%˜50%) |  |  | > 50 µM | 6756 fold | 7.4 nM
CCC(=O)N1CCN(c2cccc(-c3cn(Cc4ccc(-c5nnc(C(F)F)o5)cn4)nn3)c2)CC1 [Compound 3991] |  | ** (**, 50%˜100%) |  |  | > 50 µM | 1773 fold | 28.2 nM
CN(C)Cc1c[nH]c2cc(-c3cn(Cc4ccc(-c5nnc(C(F)F)o5)cn4)nn3)ccc12 [Compound 3962, 1-(6-(1-((5-(5-(difluoromethyl)-1,3,4-oxadiazol-2-yl)pyridin-2-yl)methyl)-1H-1,2,3-triazol-4-yl)-1H-indol-3-yl)-N,N-dimethylmethanamine] |  | *** (***, >100%) |  |  | > 50 µM | 4629 fold | 10.8 nM
CC(C)N1CCN(c2cccc(-c3cn(Cc4ccc(-c5nnc(C(F)F)o5)cn4)nn3)c2)CC1 [Compound 4070, 2-(difluoromethyl)-5-(6-((4-(3-(4-isopropylpiperazin-1-yl)phenyl)-1H-1,2,3-triazol-1-yl)methyl)pyridin-3-yl)-1,3,4-oxadiazole] |  | ** (**, 50%˜100%) |  |  | > 50 µM | 1298 fold | 38.5 nM
